Reference: patent US20250049791A1, “Synthesis of MEK7 Inhibitors and methods of Use Thereof” (Northwestern University, priority 2023, published 2025)
Entries after “also recorded” stand apart in the source; their conditions may differ.

Key:
[1] = biological target: T1, MEK6 (Homo sapiens, UniProt P52564); assay: Additional selectivity assay, MEK6 (FIG. 9); type: binding
T1 sequence (P52564 1-334): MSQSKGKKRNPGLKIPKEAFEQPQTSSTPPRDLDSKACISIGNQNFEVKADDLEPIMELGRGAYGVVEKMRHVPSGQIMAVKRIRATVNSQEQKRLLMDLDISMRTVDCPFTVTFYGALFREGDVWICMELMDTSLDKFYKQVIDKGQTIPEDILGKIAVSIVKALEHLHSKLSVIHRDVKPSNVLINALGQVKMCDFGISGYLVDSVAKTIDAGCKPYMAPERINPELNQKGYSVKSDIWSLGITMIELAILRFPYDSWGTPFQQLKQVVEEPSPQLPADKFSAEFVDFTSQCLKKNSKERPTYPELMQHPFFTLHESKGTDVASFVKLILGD

[2] = biological target: T2, EGFR (L858R) mutant (Homo sapiens, UniProt P00533, L858R); assay: ScanEDGE competition binding, EGFR (L858R); design: dose or concentration left out as unconfirmed
T2 construct: purchased DiscoverX (Eurofins)
Text: (§1) The ScanEDGE assay, completed by DiscoverX (Eurofins) is a proprietary active site-directed competition binding assay. Compounds that bind the kinase active site prevent kinase binding to the immobilized ligand, reducing the amount of kinase captured on the solid support. Hits are identified by measuring the amount of kinase captured in experimental vs, control samples by a qPCR method that detects an associated DNA label. According to data provided by Eurofins, a typical hit at 5-10% of control signal in a 1 μM assay as shown above is generally associated with a KD in the range of 100-1,000 nM. Readings with greater than 35% of control signal correspond to exceeding large dissociation constants.

[3] = tested on: p38α/β; assay: ScanEDGE competition binding, p38α/β; conditions: ScanEDGE screen
Text: as §1

[4] = biological target: T3, FLT3 (Homo sapiens, UniProt P36888); assay: ScanEDGE competition binding, FLT3; conditions: ScanEDGE screen
T3 construct: purchased DiscoverX (Eurofins)
T3 sequence (P36888 27-993): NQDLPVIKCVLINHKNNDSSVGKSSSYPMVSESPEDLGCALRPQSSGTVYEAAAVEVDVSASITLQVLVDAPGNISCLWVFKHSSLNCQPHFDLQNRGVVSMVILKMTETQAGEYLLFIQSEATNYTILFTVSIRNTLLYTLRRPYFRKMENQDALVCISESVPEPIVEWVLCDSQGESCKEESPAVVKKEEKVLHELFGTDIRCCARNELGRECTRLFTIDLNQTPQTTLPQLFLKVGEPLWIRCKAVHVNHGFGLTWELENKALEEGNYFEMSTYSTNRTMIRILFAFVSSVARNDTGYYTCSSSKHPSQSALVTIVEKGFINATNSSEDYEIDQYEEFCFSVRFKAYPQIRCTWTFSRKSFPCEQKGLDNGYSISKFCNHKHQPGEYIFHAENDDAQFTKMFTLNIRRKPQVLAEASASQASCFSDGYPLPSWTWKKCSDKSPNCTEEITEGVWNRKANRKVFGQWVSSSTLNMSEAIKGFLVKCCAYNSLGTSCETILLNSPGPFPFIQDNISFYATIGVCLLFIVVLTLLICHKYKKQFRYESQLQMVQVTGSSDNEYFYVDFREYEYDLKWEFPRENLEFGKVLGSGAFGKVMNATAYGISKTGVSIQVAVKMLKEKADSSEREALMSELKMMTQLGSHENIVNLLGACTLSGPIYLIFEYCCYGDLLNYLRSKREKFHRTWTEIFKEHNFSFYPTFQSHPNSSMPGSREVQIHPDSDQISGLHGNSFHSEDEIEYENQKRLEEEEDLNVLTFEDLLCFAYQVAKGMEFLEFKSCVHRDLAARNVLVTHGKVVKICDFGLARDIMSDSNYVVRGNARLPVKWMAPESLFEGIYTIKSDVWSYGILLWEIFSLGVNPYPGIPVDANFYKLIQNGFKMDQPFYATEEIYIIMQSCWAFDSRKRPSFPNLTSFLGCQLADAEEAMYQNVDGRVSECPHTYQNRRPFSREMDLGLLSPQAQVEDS
Text: as §1

[5] = biological target: T4, full-length MAP2K7 N-terminal GST fusion protein (Homo sapiens, UniProt O14733); assay: Whole-protein LC/TOF-MS of covalent labeling; type: binding; conditions: 2 equiv inhibitor, 5° C., 12 hours
T4 construct: purchased Carna Biosciences 07-147-10; host or cells: E. coli
T4 sequence (O14733 1-419): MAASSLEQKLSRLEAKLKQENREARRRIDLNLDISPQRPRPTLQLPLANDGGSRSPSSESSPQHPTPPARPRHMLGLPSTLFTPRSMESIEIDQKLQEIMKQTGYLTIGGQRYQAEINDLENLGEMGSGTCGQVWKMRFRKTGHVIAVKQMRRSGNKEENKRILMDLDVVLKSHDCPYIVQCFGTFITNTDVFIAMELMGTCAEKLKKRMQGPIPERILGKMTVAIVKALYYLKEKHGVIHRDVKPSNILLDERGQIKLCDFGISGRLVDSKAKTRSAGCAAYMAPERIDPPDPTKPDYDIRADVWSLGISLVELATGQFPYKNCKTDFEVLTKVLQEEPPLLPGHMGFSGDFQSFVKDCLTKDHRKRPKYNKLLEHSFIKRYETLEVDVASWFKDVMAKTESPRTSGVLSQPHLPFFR
Procedure: The construct was full-length MAP2K7 (1-419 amino acids of accession number NP_660186.1), which was prepared by the manufacturer as an N-terminal GST-fusion protein using an E. coli expression system. The construct was then purified by glutathione sepharose chromatography and shipped in a storage buffer containing 50 mM Tris —HCl, 150 mM NaCl, 0.05 mM Brij-35, 1 mM DTT, and 10% glycerol at pH=7.5.
Each whole-protein MS experiment was run with a 10 uL injection of a sample containing 50 μg of protein diluted to a final volume of 100 μL. The construct aliquots were first diluted to the appropriate volume with an aqueous solution of 150 mM NaCl and 50 mM Tris —HCl. The diluted samples were loaded on a Pierce spin column (ThermoFisher Scientific catalog number: 87777) to remove Brij-35 and finally eluted with the appropriate volume of the same buffer. Finally, 1.3 uL of DMSO (vehicle) or a 1 mM DMSO solution of covalent inhibitor was added, and the resulting roughly 101 uL solutions were incubated at 5° C. for 12 hours. The incubates were injected (10 uL) on an Agilent 6201 MSLC-TOF (ESI) with a protein column. A 10 minute water:acetonitrile gradient was performed, eluting recombinant proteins of interest in roughly 5 minutes. Masses were deconvoluted using MassHunter BioConfirm (maximum entropy).

[6] = tested on: T-ALL cell lines (JURKAT, KOPT-K1, RPMI-8402, ALL-SIL); assay: Cytotoxicity assay (CellTiter-Glo), T-ALL cell lines; type: cell-based; conditions: 48 hours

T2 sequence (P00533 25-1210 L858R): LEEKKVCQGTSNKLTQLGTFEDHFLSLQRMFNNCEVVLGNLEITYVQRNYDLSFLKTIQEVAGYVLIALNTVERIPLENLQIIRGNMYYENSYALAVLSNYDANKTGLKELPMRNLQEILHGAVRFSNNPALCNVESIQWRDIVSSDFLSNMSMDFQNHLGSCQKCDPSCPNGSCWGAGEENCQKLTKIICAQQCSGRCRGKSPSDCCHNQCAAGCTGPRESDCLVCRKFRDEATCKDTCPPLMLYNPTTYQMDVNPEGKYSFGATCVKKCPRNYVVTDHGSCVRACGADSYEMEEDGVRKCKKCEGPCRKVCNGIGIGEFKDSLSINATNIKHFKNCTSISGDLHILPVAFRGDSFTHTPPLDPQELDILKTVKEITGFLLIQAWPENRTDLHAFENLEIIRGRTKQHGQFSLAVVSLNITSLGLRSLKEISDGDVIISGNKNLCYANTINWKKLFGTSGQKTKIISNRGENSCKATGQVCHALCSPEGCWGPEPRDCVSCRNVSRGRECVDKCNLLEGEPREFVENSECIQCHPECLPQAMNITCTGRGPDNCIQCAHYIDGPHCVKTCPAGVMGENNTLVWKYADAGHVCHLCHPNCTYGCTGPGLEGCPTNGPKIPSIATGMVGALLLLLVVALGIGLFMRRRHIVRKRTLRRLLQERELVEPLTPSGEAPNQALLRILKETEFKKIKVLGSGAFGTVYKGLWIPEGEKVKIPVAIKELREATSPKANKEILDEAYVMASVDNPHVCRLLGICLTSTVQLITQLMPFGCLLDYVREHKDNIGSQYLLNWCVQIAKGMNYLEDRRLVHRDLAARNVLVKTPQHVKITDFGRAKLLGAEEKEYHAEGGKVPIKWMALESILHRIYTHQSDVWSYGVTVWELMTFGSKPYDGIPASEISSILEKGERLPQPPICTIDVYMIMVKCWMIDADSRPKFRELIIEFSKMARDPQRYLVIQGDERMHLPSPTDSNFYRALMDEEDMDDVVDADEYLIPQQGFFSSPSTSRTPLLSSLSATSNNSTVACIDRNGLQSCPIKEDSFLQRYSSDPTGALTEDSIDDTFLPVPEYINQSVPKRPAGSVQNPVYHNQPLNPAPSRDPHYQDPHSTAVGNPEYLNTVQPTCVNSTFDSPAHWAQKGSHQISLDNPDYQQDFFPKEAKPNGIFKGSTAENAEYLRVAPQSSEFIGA

activity/binding at MEK6 [1]: inactive; also recorded: lack of binding
binding to EGFR (L858R) mutant [2]: interacted significantly
activity on p38α/β [3]: no appreciable activity
engagement of FLT3 [4]: does not engage
SMILES: O=C(CCl)Nc1cccc(Oc2cc(NCc3ccccc3)ncn2)c1 [Compound 25, N-(3-((6-(benzylamino)pyrimidin-4-yl)oxy)phenyl)-2-chloroacetamide]
covalent labeling of MAP2K7, whole-protein MS [5]: covalent engagement; also recorded: Complete labeling
dose-response cytotoxicity [6]: marked cytotoxicity
